Test results published in patent US11825838B2, “Tricyclic carboxamides for controlling arthropods” (Bayer CropScience Aktiengesellschaft, priority 2017, dated 2023).

Legend:
Type in all cases: in vivo
Tetranychus urticae = Tetranychus urticae spray test, OP-resistant (TETRUR); details: for efficacy: spray, after 6 days
Experimental: Tetranychus urticae—Spray Test, OP-Resistant
(§1) To produce a suitable active ingredient formulation, 1 part by weight of active ingredient is dissolved with the specified parts by weight of solvent and made up to the desired concentration with water containing an emulsifier concentration of 1000 ppm. To produce further test concentrations, the formulation is diluted with emulsifier-containing water.
Discs of bean leaves (Phaseolus vulgaris) infested with all stages of the greenhouse red spider mite (Tetranychus urticae) are sprayed with an active compound preparation of the desired concentration.
After 6 days, the efficacy in % is determined. 100% means that all the spider mites have been killed; 0% means that no spider mites have been killed.
Tetranychus urticae—Spray Test; OP-Resistant (TETRUR)
as §1, with “compound” for “ingredient”
Discs of bean leaves (Phaseolus vulgaris) infested with all stages of the greenhouse red spider mite (Tetranychus urticae) are sprayed with an active compound formulation of the desired concentration.
After the desired time, the efficacy in % is determined. 100% means that all the spider mites have been killed; 0% means that no spider mites have been killed.

Myzus persicae = Myzus persicae spray test (MYZUPE); details: for efficacy: application rate 100 g/ha, spray, after 5 days
Experimental: Myzus persicae—Spray Test
as §1
Discs of Chinese cabbage leaves (Brassica pekinensis) infested by all stages of the green peach aphid (Myzus persicae) are sprayed with an active compound preparation of the desired concentration.
After 5 days, the efficacy in % is determined. 100% means that all the aphids have been killed; 0% means that no aphids have been killed.
Myzus Persicae—Spray Test (MYZUPE)
as §1, with “compound” for “ingredient”
Discs of Chinese cabbage leaves (Brassica pekinensis) infested with all stages of the green peach aphid (Myzus persicae) are sprayed with an active compound formulation of the desired concentration.
After the desired time, the efficacy in % is determined. 100% means that all the aphids have been killed; 0% means that no aphids have been killed.

Rhipicephalus sanguineus = Rhipicephalus sanguineus in vitro contact test with adult brown dog ticks; details: application rate 5 μg/cm^2 (=500 g/ha), after 48 h, adult dog ticks dead or moribund
Experimental: Rhipicephalus sanguineus—In Vitro Contact Tests with Adult Brown Dog Ticks
(§2) For the coating of the test tubes, 9 mg of active ingredient are first dissolved in 1 ml of acetone p.a. and then diluted to the desired concentration with acetone p.a. 250 μl of the solution are distributed homogeneously on the inner walls and the base of a 25 ml glass tube by turning and rocking on an orbital shaker (rocking rotation at 30 rpm for 2 h). With 900 ppm of active ingredient solution and internal surface area 44.7 cm^2, given homogeneous distribution, an area-based dose of 5 μg/cm^2 is achieved.
After the solvent has evaporated off, the tubes are populated with 5-10 adult dog ticks (Rhipicephalus sanguineus), sealed with a perforated plastic lid and incubated in a horizontal position in the dark at room temperature and ambient humidity. After 48 h, efficacy is determined. To this end, the ticks are knocked to the base of the tube and incubated on a hotplate at 45-50° C. for not more than 5 min. Ticks which remain motionless on the base or move in such an uncoordinated manner that they are unable to deliberately avoid the heat by climbing upwards are considered to be dead or moribund.
An efficacy of 100% means that all the ticks were dead or moribund. 0% efficacy means that none of the ticks were harmed.

Musca domestica = Musca domestica test; details: application rate 100 ppm, adult houseflies, after 2 days
Experimental: (§3) Solvent: dimethyl sulfoxide
To produce a suitable active ingredient formulation, 10 mg of active ingredient are mixed with 0.5 ml of dimethyl sulfoxide, and the concentrate is diluted with water to the desired concentration.
Vessels containing a sponge treated with sugar solution and the active ingredient formulation of the desired concentration are populated with 10 adult houseflies (Musca domestica).
After 2 days, the rate of extermination in % is determined. 100% means that all of the flies have been killed; 0% means that none of the flies have been killed.

Ctenocephalides felis [1] = test: Ctenocephalides felis in vitro contact test with adult cat fleas; details: application rate 5 μg/cm^2 (=500 g/ha), after 48 h, adult cat fleas dead or moribund
Experimental: Ctenocephalides felis—In Vitro Contact Tests with Adult Cat Fleas
as §2
After the solvent has evaporated off, the tubes are populated with 5-10 adult cat fleas (Ctenocephalides felis), sealed with a perforated plastic lid and incubated in a horizontal position at room temperature and ambient humidity. After 48 h, efficacy is determined. To this end, the tubes are stood upright and the fleas are knocked to the base of the tube. Fleas which remain motionless at the base or move in an uncoordinated manner are considered to be dead or moribund.
100% efficacy means that all the fleas were dead or moribund. 0% efficacy means that no fleas were harmed.

Ctenocephalides felis [2] = test: Ctenocephalides felis oral test; details: application rate 100 ppm in citrated cattle blood, after 2 days
Experimental: Ctenocephalides felis—Oral Test
as §3
To produce a suitable active ingredient formulation, 10 mg of active ingredient are mixed with 0.5 ml of dimethyl sulfoxide. Dilution with citrated cattle blood gives the desired concentration.
About 20 unfed adult cat fleas (Ctenocephalides felis) are placed into a chamber which is closed at the top and bottom with gauze. A metal cylinder whose bottom end is closed with parafilm is placed onto the chamber. The cylinder contains the blood/active ingredient formulation, which can be imbibed by the fleas through the parafilm membrane.
After 2 days, the rate of extermination in % is determined. 100% means that all of the fleas have been killed; 0% means that none of the fleas have been killed.

[3] = test system: cattle ticks (Boophilus microplus) Parkhurst strain, SP-resistant; test: Boophilus microplus dip test; details: application rate 100 ppm, assessed after 7 days by laying of fertile eggs
Experimental: Boophilus microplus—Dip Test
Test animals: cattle ticks (Boophilus microplus) Parkhurst strain, SP-resistant
as §3
10 mg of active ingredient are dissolved in 0.5 ml of dimethyl sulfoxide. To produce a suitable formulation, the active ingredient solution is diluted with water to the concentration desired in each case. This active ingredient formulation is pipetted into tubes. 8-10 engorged adult female cattle ticks (Boophilus microplus) are transferred into a further tube with holes. The tube is immersed into the active ingredient formulation, and all the ticks are completely wetted. After the liquid has run out, the ticks are transferred on filter discs into plastic dishes and stored in a climate-controlled room.
Efficacy is assessed after 7 days by laying of fertile eggs. Eggs which are not visibly fertile are stored in a climate-controlled cabinet until the larvae hatch after about 42 days. An efficacy of 100% means that none of the ticks has laid any fertile eggs; 0% means that all the eggs are fertile.

SMILES | Emax at 100 g/ha (Tetranychus urticae; Tetranychus urticae, 144 h, TETRUR, 100 g ai/ha, 6 dat, read-out: % efficacy dat) [%] | efficacy (Tetranychus urticae; application rate 20 g/ha) [%] | Emax at 100 g/ha (Myzus persicae; Myzus persicae, 120 h, MYZUPE, 100 g ai/ha, 5 dat, read-out: % efficacy dat) [%] | efficacy (Myzus persicae) [%] | efficacy (Rhipicephalus sanguineus) [%] | efficacy (rate of extermination) (Musca domestica) [%] | efficacy (Ctenocephalides felis [1]) [%] | efficacy (rate of extermination) (Ctenocephalides felis [2]) [%] | efficacy [3] [%] | efficacy (Tetranychus urticae; application rate 100 g/ha) [%]
O=C(NC1CC1)c1cc(-c2cnn(-c3c(Cl)cc(C(F)(C(F)(F)F)C(F)(F)F)cc3Cl)c2)sc1Br [I-T1-1] | 70 | 100 | 100 | 100 | 100 | 100 | 100 | 100 | 100 | 
Cc1sc(-c2cnn(-c3c(Cl)cc(C(F)(C(F)(F)F)C(F)(F)F)cc3Cl)c2)cc1C(=O)NC1CC1 [I-T1-11] |  | 100 |  | 90 | 100 | 100 | 100 | 100 | 100 | 100
